Earlier results on one compound are cited in PMC10973013, “Translational Potential of a Contrast Agent for FGS Applications in pNETs” (Molecular Imaging and Biology, 2024).

Structures are written as SMILES.

The test system of this data set is lesions in ovarian cancer patients. The note with it: cytoreductive surgery, randomized phase 3. An excerpt:
The critical need for accurate tumor detection during oncologic surgery has led to the development of fluorescent contrast agents that target cancerous tissues. This technique, known as fluorescence-guided surgery (FGS), typically involves systemic administration of a fluorescent compound that contains a tumor-targeting moiety and is imaged in the near-infrared spectral range in order to maximize image contrast and diagnostic accuracy. In 2021, the folic acid analog OTL-38 (CYTALUX®) became the first clinically approved FGS agent to target tumors via an active, receptor-mediated process. ...

Turning to `CC1(C)C(/C=C/C2=C(Oc3ccc(C[C@H](NC(=O)c4ccc(NCc5cnc6nc(N)[nH]c(=O)c6n5)cc4)C(=O)[O-])cc3)C(=C/C=C3\N(CCCCS(=O)(=O)[O-])c4ccc(S(=O)(=O)[O-])cc4C3(C)C)/CCC2)=[N+](CCCCS(=O)(=O)[O-])c2ccc(S(=O)(=O)[O-])cc21.[H+].[H+].[H+].[H+]` [OTL-38], the “identification of lesions with FGS versus standard-of-care methods” value was “more effectively identified with FGS than with standard-of-care methods”.
